Experimental data as given in patent US20210038607A1, “OXADIAZOLYLTHIOPHENE DERIVATIVES USEFUL AS HISTONE DEACETYLASE INHIBITORS” (Karus Therapeutics Limited, priority 2018, published 2021).

Columns and labels:
Human HDAC1 = target: T1, Human HDAC1 (Homo sapiens, UniProt Q13547); assay: HDAC1 biochemical assay, AMC-labeled peptide substrate; conditions: read-out: HDAC Isoform IC50 (nM) 1
T1 construct: full length with C-terminal His-tag and C-terminal FLAG-tag; His (C); FLAG (C); host or cells: baculovirus expression system
T1 sequence (Q13547 whole entry, canonical isoform): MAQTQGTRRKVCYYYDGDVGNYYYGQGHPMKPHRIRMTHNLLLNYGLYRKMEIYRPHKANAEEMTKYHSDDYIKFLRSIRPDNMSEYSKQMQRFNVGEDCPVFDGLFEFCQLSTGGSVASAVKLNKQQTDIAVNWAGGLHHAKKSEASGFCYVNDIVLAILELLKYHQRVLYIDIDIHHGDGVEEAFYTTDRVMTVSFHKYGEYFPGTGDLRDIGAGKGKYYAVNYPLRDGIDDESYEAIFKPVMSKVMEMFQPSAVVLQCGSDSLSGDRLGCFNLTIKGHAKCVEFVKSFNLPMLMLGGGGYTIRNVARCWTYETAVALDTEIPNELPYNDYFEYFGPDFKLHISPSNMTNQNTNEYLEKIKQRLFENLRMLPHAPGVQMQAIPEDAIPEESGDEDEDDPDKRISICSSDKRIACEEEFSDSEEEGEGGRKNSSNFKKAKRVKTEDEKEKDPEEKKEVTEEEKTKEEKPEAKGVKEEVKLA
In short: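 Two-step fluorogenic read: HDAC1 deacetylates 50 μM acetyl-lysine AMC peptide RHKK(Ac)AMC for 1 h at 30° C (pH 8.0, 1% DMSO, with compound), then developer digests the product for fluorescence at Ex/Em 360/460. Enzyme is full-length human, His/FLAG-tagged, insect-cell expressed, at 0.3 ng/ul.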

Human HDAC5 = target: T2, Human HDAC5 (Homo sapiens, UniProt Q9UQL6); assay: HDAC5 biochemical assay, class IIa-specific substrate; conditions: read-out: HDAC Isoform IC50 (nM) 5
T2 construct: full length with C-terminal His tag, MW=51.1 kDa; His (C); host or cells: baculovirus expression system
T2 sequence (Q9UQL6 656-1122 limits assumed): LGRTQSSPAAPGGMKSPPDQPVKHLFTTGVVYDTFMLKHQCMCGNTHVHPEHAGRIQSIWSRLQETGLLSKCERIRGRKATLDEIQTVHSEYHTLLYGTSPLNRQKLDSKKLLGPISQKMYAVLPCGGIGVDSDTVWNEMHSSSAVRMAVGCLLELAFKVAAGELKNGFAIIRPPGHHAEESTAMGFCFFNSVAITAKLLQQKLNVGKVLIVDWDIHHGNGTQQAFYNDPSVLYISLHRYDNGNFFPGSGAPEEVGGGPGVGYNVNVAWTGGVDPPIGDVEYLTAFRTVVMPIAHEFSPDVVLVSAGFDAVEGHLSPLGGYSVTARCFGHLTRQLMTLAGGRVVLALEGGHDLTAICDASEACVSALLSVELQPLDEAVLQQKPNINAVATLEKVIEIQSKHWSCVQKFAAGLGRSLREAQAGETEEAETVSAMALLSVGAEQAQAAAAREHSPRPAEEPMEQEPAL
In short: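 Two-step fluorogenic read-out: deacetylated trifluoroacetyl-lysine AMC substrate (50 μM) digested by developer, measured at Ex/Em 360/460. Deacetylation step: 0.05 ng/ul His-tagged full-length baculoviral enzyme with compound, 30 min, room temperature, pH 8.0 Tris with 1 mg/mL BSA and 1% DMSO.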

Human HDAC4 = target: T3, Human HDAC4 (Homo sapiens, UniProt P56524); assay: HDAC4 biochemical assay, class IIa-specific substrate; conditions: read-out: HDAC Isoform IC50 (nM) 4
T3 construct: amino acids 627-1085 with N-terminal GST tag; GST (N); host or cells: baculovirus expression system
T3 sequence (P56524 627-1084 limits assumed): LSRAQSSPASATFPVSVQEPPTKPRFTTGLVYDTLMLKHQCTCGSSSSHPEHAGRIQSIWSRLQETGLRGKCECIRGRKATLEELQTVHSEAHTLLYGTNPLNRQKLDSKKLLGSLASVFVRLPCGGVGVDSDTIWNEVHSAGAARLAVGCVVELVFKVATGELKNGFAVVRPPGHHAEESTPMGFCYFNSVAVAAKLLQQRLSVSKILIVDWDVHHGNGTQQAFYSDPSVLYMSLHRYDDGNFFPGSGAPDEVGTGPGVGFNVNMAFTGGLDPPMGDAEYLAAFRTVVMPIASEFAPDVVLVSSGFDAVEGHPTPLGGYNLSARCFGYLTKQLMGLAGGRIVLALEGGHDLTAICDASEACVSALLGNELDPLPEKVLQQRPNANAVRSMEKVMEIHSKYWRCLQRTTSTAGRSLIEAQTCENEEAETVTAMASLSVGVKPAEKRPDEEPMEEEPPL
In short: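 Two-step fluorogenic read-out: deacetylated BOC-Lys(trifluoroacetyl)-AMC (50 μM) was digested by developer and measured at Ex/Em 360/460. Deacetylation by 0.004 ng/ul HDAC4 (aa 627-1085, N-terminal GST) ran 30 min at room temperature, pH 8.0 Tris buffer, 1 mg/mL BSA, 1% DMSO.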

Human HDAC7 = target: T4, Human HDAC7 (Homo sapiens, UniProt Q8WUI4); assay: HDAC7 biochemical assay, class IIa-specific substrate; conditions: read-out: HDAC Isoform IC50 (nM) 7
T4 construct: (a.a. 518-end) with N-terminal GST tag; GST (N); host or cells: baculovirus expression system
T4 sequence (Q8WUI4 518-952 limits assumed): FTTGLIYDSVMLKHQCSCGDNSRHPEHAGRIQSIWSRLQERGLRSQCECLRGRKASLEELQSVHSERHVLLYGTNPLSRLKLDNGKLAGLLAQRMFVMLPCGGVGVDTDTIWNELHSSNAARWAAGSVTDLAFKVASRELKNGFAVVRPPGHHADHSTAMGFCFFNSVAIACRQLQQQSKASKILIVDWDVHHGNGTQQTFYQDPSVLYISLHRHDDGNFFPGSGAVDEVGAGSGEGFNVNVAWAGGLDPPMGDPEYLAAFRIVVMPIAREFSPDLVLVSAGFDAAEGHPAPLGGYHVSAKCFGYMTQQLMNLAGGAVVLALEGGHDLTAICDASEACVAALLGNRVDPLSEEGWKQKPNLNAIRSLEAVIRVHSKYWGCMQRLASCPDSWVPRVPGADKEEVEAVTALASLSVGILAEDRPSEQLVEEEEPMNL
In short: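 Two-step fluorogenic readout: class IIa-selective trifluoroacetyl-lysine AMC substrate (50 μM) deacetylated by N-terminal GST-HDAC7 fragment (0.001 ng/ul), then digested by developer, Ex/Em 360/460. Reaction: 30 min, room temperature, Tris-HCl pH 8.0, NaCl/KCl/MgCl2, 1 mg/mL BSA, 1% DMSO.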

Recombinant human HDAC6 = target: T5, Recombinant human HDAC6 (Homo sapiens, UniProt Q9UBN7); assay: HDAC6 biochemical assay, AMC-labeled peptide substrate; conditions: HDAC6; read-out: HDAC Isoform IC50 (nM) 6
T5 construct: full length, MW=159 kDa; GST (N); host or cells: Sf9 insect cells (baculovirus)
T5 sequence (Q9UBN7 1-1215): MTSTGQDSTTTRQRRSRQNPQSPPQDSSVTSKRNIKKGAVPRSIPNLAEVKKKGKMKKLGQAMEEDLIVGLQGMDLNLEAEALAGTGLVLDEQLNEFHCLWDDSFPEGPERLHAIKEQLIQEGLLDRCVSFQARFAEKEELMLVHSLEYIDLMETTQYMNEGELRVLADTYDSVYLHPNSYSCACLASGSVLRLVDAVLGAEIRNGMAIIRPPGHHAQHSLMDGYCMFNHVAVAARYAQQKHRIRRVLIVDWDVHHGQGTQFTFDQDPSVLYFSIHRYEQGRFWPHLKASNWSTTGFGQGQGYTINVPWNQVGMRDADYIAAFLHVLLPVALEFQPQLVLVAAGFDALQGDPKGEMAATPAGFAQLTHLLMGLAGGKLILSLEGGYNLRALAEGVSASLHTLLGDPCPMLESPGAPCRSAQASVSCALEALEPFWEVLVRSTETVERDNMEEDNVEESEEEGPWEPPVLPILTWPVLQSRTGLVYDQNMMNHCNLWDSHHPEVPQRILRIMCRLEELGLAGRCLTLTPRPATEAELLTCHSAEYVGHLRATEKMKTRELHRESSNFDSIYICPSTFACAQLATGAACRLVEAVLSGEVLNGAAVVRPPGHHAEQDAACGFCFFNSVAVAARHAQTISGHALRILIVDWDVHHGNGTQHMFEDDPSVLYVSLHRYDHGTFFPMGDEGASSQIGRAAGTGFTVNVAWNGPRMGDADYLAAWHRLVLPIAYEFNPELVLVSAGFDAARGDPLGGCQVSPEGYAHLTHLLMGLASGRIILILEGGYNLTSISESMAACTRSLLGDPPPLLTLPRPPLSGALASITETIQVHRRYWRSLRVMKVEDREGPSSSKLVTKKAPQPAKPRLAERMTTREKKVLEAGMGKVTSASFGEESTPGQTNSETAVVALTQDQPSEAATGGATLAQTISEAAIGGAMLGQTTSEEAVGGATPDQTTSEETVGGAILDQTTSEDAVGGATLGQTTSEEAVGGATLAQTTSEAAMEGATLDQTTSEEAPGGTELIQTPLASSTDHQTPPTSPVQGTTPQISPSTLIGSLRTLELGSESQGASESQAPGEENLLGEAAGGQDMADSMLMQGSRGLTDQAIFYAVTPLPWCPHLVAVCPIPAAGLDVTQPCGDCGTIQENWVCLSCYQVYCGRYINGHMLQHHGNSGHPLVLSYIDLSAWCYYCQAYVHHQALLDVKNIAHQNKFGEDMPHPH
In short: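 Two-step fluorogenic read-out: enzyme deacetylates 50 μM RHKK(Ac)AMC for 1 h at 30° C in pH 8.0 Tris buffer with BSA and 1% DMSO, then developer cleavage gives signal at Ex 360/Em 460. Enzyme: 0.3 ng/ul recombinant full-length human HDAC6, GST-tagged, Sf9-expressed.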

Human HDAC9 = target: T6, Human HDAC9 (Homo sapiens, UniProt Q9UKV0); assay: HDAC9 biochemical assay, class IIa-specific substrate; conditions: read-out: HDAC Isoform IC50 (nM) 9
T6 construct: amino acids 604-1066 with C-terminal His tag; His (C); host or cells: baculovirus expression system
T6 sequence (Q9UKV0 604-1066 isoform Q9UKV0-5): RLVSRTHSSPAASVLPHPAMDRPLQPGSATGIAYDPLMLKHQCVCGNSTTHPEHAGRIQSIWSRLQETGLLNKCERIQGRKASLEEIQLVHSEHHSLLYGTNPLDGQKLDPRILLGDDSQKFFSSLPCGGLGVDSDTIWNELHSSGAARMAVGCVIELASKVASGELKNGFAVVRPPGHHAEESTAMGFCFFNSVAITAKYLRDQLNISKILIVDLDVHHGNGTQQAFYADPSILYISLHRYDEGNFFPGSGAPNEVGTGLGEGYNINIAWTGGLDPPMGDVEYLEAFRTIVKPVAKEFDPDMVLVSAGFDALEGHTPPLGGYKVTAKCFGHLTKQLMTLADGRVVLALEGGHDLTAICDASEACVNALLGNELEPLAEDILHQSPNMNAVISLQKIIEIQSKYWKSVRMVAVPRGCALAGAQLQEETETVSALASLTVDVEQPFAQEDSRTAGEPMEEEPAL
In short: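 HDAC9 residues 604-1066 (C-terminal His tag, baculovirus-expressed) at 0.06 ng/ul with 50 μM class IIa substrate Boc-Lys(trifluoroacetyl)-AMC in Tris-HCl pH 8.0 buffer with BSA and 1% DMSO. 30 min at room temperature, then developer added; fluorescence read at 360/460 nm Ex/Em.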

IC50 (Human HDAC1)	IC50 (Human HDAC5)	IC50 (Human HDAC4)	IC50 (Human HDAC7)	IC50 (Recombinant human HDAC6)	IC50 (Human HDAC9)	Compound
> 10000 nM	≤ 10000 nM	≤ 1000 nM	≤ 10000 nM	≤ 10000 nM	≤ 10000 nM	FC(F)(F)c1nc(-c2ccc(CN(c3cnccn3)c3cncnc3C(F)(F)F)s2)no1 [Example DA, N-(Pyrazin-2-yl)-4-(trifluoromethyl)-N-({5-[5-(trifluoromethyl)-1,2,4-oxadiazol-3-yl]thiophen-2-yl}methyl)pyrimidin-5-amine]
≤ 10000 nM	≤ 10000 nM	≤ 10000 nM	≤ 10000 nM	≤ 1000 nM	≤ 10000 nM	COc1cnc(N(Cc2ccc(-c3noc(C(F)(F)F)n3)s2)c2cnccn2)nc1 [Example AY, 5-Methoxy-N-(pyrazin-2-yl)-N-({5-[5-(trifluoromethyl)-1,2,4-oxadiazol-3-yl]thiophen-2-yl}methyl)pyrimidin-2-amine]
> 10000 nM	≤ 1000 nM	≤ 500 nM	≤ 1000 nM	≤ 1000 nM	≤ 10000 nM	COc1nccc(N(Cc2ccc(-c3noc(C(F)(F)F)n3)s2)c2cnccn2)n1 [Example CB, 2-Methoxy-N-(pyrazin-2-yl)-N-({5-[5-(trifluoromethyl)-1,2,4-oxadiazol-3-yl]thiophen-2-yl}methyl)pyrimidin-4-amine]
> 10000 nM	≤ 10000 nM	≤ 1000 nM	≤ 10000 nM	≤ 10000 nM	≤ 10000 nM	FC(F)(F)c1nc(-c2ccc(CN(c3cnccn3)c3cnsn3)s2)no1 [Example S, N-(1,2,5-Thiadiazol-3-yl)-N-({5-[5-(trifluoromethyl)-1,2,4-oxadiazol-3-yl]thiophen-2-yl}methyl)pyrazin-2-amine]
≤ 10000 nM	≤ 500 nM	≤ 500 nM	≤ 500 nM	≤ 500 nM	≤ 10000 nM	CN1CCN(c2ccc(N(Cc3ccc(-c4noc(C(F)(F)F)n4)s3)c3cnccn3)nn2)CC1 [Example DK, 6-(4-Methylpiperazin-1-yl)-N-(pyrazin-2-yl)-N-({5-[5-(trifluoromethyl)-1,2,4-oxadiazol-3-yl]thiophen-2-yl}methyl)pyridazin-3-amine]
> 10000 nM	≤ 1000 nM	≤ 1000 nM	≤ 10000 nM	≤ 1000 nM	≤ 10000 nM	CN(C)C(=O)c1ccc(N(Cc2ccc(-c3noc(C(F)(F)F)n3)s2)c2cnccn2)nc1 [Example AC, N,N-Dimethyl-6-[pyrazin-2-yl({5-[5-(trifluoromethyl)-1,2,4-oxadiazol-3-yl]thiophen-2-yl}methyl)amino]pyridine-3-carboxamide]
> 10000 nM	≤ 500 nM	≤ 500 nM	≤ 1000 nM	≤ 10000 nM	≤ 1000 nM	Cc1cnc(N(Cc2ccc(-c3noc(C(F)(F)F)n3)s2)c2cnccn2)c(C)n1 [Example BV, 3,5-Dimethyl-N-(pyrazin-2-yl)-N-({5-[5-(trifluoromethyl)-1,2,4-oxadiazol-3-yl]thiophen-2-yl}methyl)pyrazin-2-amine]
> 10000 nM	≤ 10000 nM	≤ 10000 nM	≤ 10000 nM	≤ 10000 nM	≤ 10000 nM	FC(F)(F)c1cc(N(Cc2ccc(-c3noc(C(F)(F)F)n3)s2)c2cnccn2)ncn1 [Example CJ, N-(Pyrazin-2-yl)-6-(trifluoromethyl)-N-({5-[5-(trifluoromethyl)-1,2,4-oxadiazol-3-yl]thiophen-2-yl}methyl)pyrimidin-4-amine]
> 10000 nM	≤ 10000 nM	≤ 1000 nM	≤ 10000 nM	≤ 10000 nM	≤ 10000 nM	FC(F)(F)c1nc(-c2ccc(CN(c3cnccn3)c3ccnc4ccnn34)s2)no1 [Example CF, N-{Pyrazolo[1,5-a]pyrimidin-7-yl}-N-({5-[5-(trifluoromethyl)-1,2,4-oxadiazol-3-yl]thiophen-2-yl}methyl)pyrazin-2-amine]
> 10000 nM	≤ 500 nM	≤ 500 nM	≤ 500 nM	≤ 10000 nM	≤ 1000 nM	Cc1ncnc(C)c1N(Cc1ccc(-c2noc(C(F)(F)F)n2)s1)c1cnccn1 [Example DC, 4,6-Dimethyl-N-(pyrazin-2-yl)-N-({5-[5-(trifluoromethyl)-1,2,4-oxadiazol-3-yl]thiophen-2-yl}methyl)pyrimidin-5-amine]
> 10000 nM	≤ 10000 nM	≤ 1000 nM	≤ 10000 nM	≤ 10000 nM	≤ 10000 nM	CS(=O)(=O)c1cc(N(Cc2ccc(-c3noc(C(F)(F)F)n3)s2)c2cnccn2)ncn1 [Example CK, 6-Methanesulfonyl-N-(pyrazin-2-yl)-N-({5-[5-(trifluoromethyl)-1,2,4-oxadiazol-3-yl]thiophen-2-yl}methyl)pyrimidin-4-amine]
≤ 10000 nM	≤ 1000 nM	≤ 500 nM	≤ 500 nM	≤ 1000 nM	≤ 10000 nM	Cc1ncc(N(Cc2ccc(-c3noc(C(F)(F)F)n3)s2)c2cnccn2)cn1 [Example CS, 2-Methyl-N-(pyrazin-2-yl)-N-({5-[5-(trifluoromethyl)-1,2,4-oxadiazol-3-yl]thiophen-2-yl}methyl)pyrimidin-5-amine]
